Earlier results, collected in patent US20240245680A1, “Methods of Treating Retinal Vasculopathies” (Unity Biotechnology, Inc., priority 2021, published 2024).

Columns and labels:
[1] = biological target: T1, glutaminase C (GAC) (Homo sapiens, UniProt O94925); conditions: cited from earlier work
T1 sequence (O94925 55-598 isoform O94925-3 limits assumed): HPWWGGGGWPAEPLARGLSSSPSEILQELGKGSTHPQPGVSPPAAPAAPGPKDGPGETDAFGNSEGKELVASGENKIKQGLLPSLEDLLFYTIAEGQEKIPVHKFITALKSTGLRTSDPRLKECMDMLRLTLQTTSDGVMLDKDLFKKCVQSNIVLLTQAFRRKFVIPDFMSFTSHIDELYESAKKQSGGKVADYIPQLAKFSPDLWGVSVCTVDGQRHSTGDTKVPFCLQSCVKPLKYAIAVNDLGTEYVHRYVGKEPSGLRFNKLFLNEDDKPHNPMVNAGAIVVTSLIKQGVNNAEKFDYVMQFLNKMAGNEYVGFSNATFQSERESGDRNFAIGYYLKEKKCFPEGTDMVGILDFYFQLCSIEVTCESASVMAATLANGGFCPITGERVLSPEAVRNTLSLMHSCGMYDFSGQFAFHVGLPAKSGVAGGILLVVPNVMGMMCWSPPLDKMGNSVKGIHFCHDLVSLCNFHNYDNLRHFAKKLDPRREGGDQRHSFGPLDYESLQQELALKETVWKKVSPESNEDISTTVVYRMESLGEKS

[2] = biological target: T2, GLS2 (Homo sapiens, UniProt Q9UI32); conditions: cited from earlier work
T2 sequence (Q9UI32 15-602): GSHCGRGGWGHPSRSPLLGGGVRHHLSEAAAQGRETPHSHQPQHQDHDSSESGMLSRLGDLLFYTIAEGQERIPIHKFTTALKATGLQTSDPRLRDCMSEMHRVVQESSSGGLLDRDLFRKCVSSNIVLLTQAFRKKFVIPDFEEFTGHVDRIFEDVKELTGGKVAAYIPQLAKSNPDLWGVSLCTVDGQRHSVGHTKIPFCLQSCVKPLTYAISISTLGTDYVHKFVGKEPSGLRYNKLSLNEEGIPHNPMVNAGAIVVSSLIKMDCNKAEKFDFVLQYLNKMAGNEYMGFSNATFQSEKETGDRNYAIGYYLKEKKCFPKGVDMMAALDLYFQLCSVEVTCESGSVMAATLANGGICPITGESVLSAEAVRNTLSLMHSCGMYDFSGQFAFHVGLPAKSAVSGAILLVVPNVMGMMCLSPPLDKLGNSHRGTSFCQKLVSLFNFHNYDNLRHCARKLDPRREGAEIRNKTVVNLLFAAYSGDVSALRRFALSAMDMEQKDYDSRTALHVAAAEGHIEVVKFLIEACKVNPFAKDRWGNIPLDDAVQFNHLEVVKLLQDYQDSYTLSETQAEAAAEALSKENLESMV

## O=C(Cc1ccccc1)Nc1nnc(NC2CCN(c3nnc(NC(=O)Cc4ccccc4)s3)CC2)s1 [UPGL00004]
[1]
  IC50: 29 nM
[2]
  selectivity for GAC over GLS2: high selectivity
